For data set [1], the target named is T1, G12V KRAS (aa2-184) (Homo sapiens, UniProt P01116, G12V). The data set is described as follows: biochemical.
Method: (§3) SPR assay was used to measure the kinetic binding constant (KD) of Examples of the present invention.
(§4) The binding affinity and kinetics of Examples of the present invention were measured by Surface Plasmon Resonance (SPR) using Biacore 8K or 8K+ (Cytiva, Marlborough, MA) instruments. Recombinant, C-terminal site-specific biotinylated, wild-type (WT) KRAS (aa1-185), G12D KRAS (aa1-185), G12C KRAS (aa2-184), G12V KRAS (aa2-184), WT HRAS (aa2-184) and WT NRAS (aa2-185) proteins purified in presence of 1 μM GDP were used in these experiments. Binding measurements were performed parallelly in sets of either WT/G12D/G12C/G12V KRAS or WT K/H/N RAS proteins.
(§5) Biacore instrument was desorbed and docked with a Series S Sensor Chip SA. The proteins were diluted to 50 μg/mL with the assay buffer (50 mM HEPES, 150 mM NaCl, 10 μM GDP, 5 mM MgCl2, 0.5 mM TCEP, 5% glycerol, 0.02% Tween-20, 2% DMSO, pH 7.2) and immobilized at a flow rate of 3 μL/min at 10° C. with a contact time of 15 min. to capture ~3000-4000 RUs of proteins on the surface. The functionalized surface was then equilibrated with assay buffer for approximately 1 hour. Un-functionalized SA surfaces with no immobilized protein served as reference for binding kinetic analysis. Compound binding kinetics were measured in either multi-cycle or single-cycle kinetic format.
(§6) A 2-fold, 10-point serial dilution of test compounds was set-up in a 96-well microplate (Greiner; Cat #650101) with a top concentration of either 10 μM or 100 μM. Binding kinetics was measured at 10° C. by injecting serial dilution of compounds onto both reference and RAS immobilized channels at a flow rate of 100 μL/min and association time of 90 seconds. Compound dissociation was monitored for at least 400 seconds during each cycle. No additional regeneration was used. DMSO calibration curve was obtained before and after compound analysis by injecting 0-4% of DMSO in assay buffer. A suitable compound with known affinity and kinetics was tested once in every experiment as a positive control to assess activity of the captured protein on the surface.
(§7) A 3-fold, 6-point serial dilution of compounds was set-up in a deep 96-well microplate (Greiner Bio; Cat #780201) with the highest concentration of 1 μM (concentration range: 0.004-1 μM). Binding kinetics was measured at 10° C. by injecting serial dilutions of compounds in increasing order onto reference as well as RAS immobilized channels at a flow rate of 100 μL/min and association time of 120 seconds. Compound dissociation was monitored for at least 3600 seconds. Two buffer blanks were also run in a single-cycle kinetics format before the compound run for double referencing. No additional regeneration was used. DMSO calibration curve was obtained before and after compound analysis by injecting 0-4% of DMSO in the assay buffer. A suitable compound with known affinity and kinetics was tested once in every experiment as a positive control to assess activity of the captured protein on the surface.
(§8) Both MCK and SCK data were processed and analyzed using Biacore Insight evaluation software (Cytiva, Marlborough, MA)). […] The adequateness of the fit was judged by c^2 values and the randomness of residue distribution.
(§9) A geometric mean of binding constant KD was provided when an Example was tested more than once (n is testing replicate number).
For data set [2], the target named is T2, wild-type (WT) KRAS (aa1-185) (Homo sapiens, UniProt P01116).
T2 construct: wild-type (WT) KRAS (aa1-185)
Put plainly: KRAS Surface Plasma Resonance (SPR) binding assay, WT KRAS. The settings on record: SPR at 10 °C, geometric mean when tested more than once. The text has this: (§1) No additional regeneration was used.
(§2) Compound dissociation was monitored for at least 3600 seconds. […] No additional regeneration was used.

In data set [3] the target is T3, G12D KRAS (aa1-185) (Homo sapiens, UniProt P01116, G12D). The data set is described as follows: biochemical.
T3 sequence (P01116 1-185 isoform P01116-2 G12D): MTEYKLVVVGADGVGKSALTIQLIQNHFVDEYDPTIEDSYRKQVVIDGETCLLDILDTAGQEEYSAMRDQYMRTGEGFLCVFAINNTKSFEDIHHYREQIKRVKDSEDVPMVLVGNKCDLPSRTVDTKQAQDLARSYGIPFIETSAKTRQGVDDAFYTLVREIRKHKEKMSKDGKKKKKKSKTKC
Method: as §3, §4, §5, §6, §7, §8, §9
A further data set addresses T4, WT NRAS (aa2-185) (Homo sapiens, UniProt P01111).
T4 construct: WT NRAS (aa2-185)
The data set is described as follows: SPR binding assay, WT NRAS. The settings on record: SPR at 10 °C, geometric mean when tested more than once.
Excerpt: as §1, §2
On the technique in general: In SPR one partner is held on a chip, and binding of the other changes the refractive index at the surface.

Data set [4] concerns the target T5, G12C KRAS (aa2-184) (Homo sapiens, UniProt P01116, G12C). Put plainly: biochemical.
Method: as §3, §4, §5, §6, §7, §8, §9
Another data set concerns the target T6, WT HRAS (aa2-184) (Homo sapiens, UniProt P01112).
T6 construct: WT HRAS (aa2-184)
Put plainly: SPR binding assay, WT HRAS. The settings on record: SPR at 10 °C, geometric mean when tested more than once.
Excerpt: as §1, §2

The nature of data set [5]: Mouse PK study, unbound plasma exposure of Example 33 after oral dosing of female NSG mice. The data set is classed as in vivo. The settings on record: for Cav, ss, u / Cmax, u: unbound Example 33 in plasma, single oral dose 100 mg (active)/kg. The method, then:
FIG. 1 provides mouse PK study results showing unbound plasma concentrations of Example 33 in female NSG mouse plasma after oral dosing of female NSG Mice at 100 mg/kg (n=3, mean+/−SD). The solution of Example 33 was prepared using a Pluronic-based formulation [2.5% (w/v) Pluronic F-68 (Poloxamer 188)], and the suspension arms of both Example 33 and Example 34 were prepared using a 0.5% (w/v) methylcellulose formulation.
The solution formulation of Example 33 was an aqueous solution with 2.5% (w/v) Pluronic F-68 (Poloxamer 188). The amorphous suspension formulations of Example 33 and Example 34 were made using in 0.5% (w/v) methylcellulose in water.

Data set [6] deals with T1, G12V KRAS (aa2-184).
Method: as §3, §4, §5, §6, §7, §8, §9
The target of data set [7] is T3, G12D KRAS (aa1-185).
Method: as §3, §4, §5, §6, §7, §8, §9
Data set [8] concerns the target T5, G12C KRAS (aa2-184).
Method: as §3, §4, §5, §6, §7, §8, §9
[9] abbreviates: suspension, relative to Example 33 suspension, 100 mg (active)/kg oral.
Setting [10] is: suspension (0.5% methylcellulose).

SMILES strings stand for the structures. pKd: −log10 of the molar value. Where a name gives a salt, the structure may show the parent alone. Read-outs that look alike come from different tables or passages of the source.

For orientation: pKd means the negative decadic logarithm of the Kd, by convention in mol/L. Higher therefore signals a low Kd.

T6 sequence (P01112 2-184): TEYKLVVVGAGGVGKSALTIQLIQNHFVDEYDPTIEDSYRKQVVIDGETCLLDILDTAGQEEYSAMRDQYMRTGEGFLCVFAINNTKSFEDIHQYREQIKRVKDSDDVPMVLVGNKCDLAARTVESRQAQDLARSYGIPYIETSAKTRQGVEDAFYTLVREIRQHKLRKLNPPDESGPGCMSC
T1 sequence (P01116 2-184 isoform P01116-2 G12V): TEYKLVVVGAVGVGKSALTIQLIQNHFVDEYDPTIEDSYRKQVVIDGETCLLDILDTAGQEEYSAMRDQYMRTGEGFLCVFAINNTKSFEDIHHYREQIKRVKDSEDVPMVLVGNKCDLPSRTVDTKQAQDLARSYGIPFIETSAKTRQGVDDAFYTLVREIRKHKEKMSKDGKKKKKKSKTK
T5 sequence (P01116 2-184 isoform P01116-2 G12C): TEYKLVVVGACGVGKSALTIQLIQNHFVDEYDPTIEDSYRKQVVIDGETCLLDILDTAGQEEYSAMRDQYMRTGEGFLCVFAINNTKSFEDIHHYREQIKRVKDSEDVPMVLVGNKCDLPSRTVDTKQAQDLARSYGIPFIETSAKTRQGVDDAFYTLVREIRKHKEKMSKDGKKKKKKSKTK
T4 sequence (P01111 2-185): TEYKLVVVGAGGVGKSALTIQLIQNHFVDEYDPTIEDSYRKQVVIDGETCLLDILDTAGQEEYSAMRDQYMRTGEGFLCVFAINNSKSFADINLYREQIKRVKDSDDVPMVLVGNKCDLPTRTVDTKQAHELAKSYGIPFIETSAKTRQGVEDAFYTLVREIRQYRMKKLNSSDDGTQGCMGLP
T2 sequence (P01116 1-185 isoform P01116-2): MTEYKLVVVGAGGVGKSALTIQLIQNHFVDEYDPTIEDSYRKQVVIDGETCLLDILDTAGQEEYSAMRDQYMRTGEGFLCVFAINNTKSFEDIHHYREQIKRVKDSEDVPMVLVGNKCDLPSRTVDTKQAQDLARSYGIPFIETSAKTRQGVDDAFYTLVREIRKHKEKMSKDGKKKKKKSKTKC

Turning to `N#CC[C@@H]1CCCN(c2nc(OC[C@@]34CCCN3C[C@H](F)C4)nc3c(F)c(-c4cc(O)cc5ccc(F)c(F)c45)ncc23)C1` [Example 12, {(3S)-1-[7-(7,8-difluoro-3-hydroxynaphthalen-1-yl)-8-fluoro-2-{[(2R,7aS)-2-fluorotetrahydro-1H-pyrrolizin-7a(5H)-yl]methoxy}pyrido[4,3-d]pyrimidin-4-yl]piperidin-3-yl}acetonitrile], the pKd at G12V KRAS (aa2-184) [1] is 9.93; in data set [2] it was 10.66; at G12D KRAS (aa1-185) [3], 10.35; on WT NRAS (aa2-185) it was 6.00; on G12C KRAS (aa2-184) [4] it was 8.95; at WT HRAS (aa2-184) it was 6.22.

As to `CC(=O)N1CCN(c2nc(OC[C@@]34CCCN3C[C@H](F)C4)nc3c(F)c(-c4cc(O)cc5ccc(F)c(F)c45)ncc23)C[C@@H]1CC#N` [Example 13, {(2S)-1-acetyl-4-[7-(7,8-difluoro-3-hydroxynaphthalen-1-yl)-8-fluoro-2-{[(2R,7aS)-2-fluorotetrahydro-1H-pyrrolizin-7a(5H)-yl]methoxy}pyrido[4,3-d]pyrimidin-4-yl]piperazin-2-yl}acetonitrile], the pKd on G12V KRAS (aa2-184) [1] was 7.98; in data set [2], 8.90; on G12D KRAS (aa1-185) [3] it was 7.22; at WT NRAS (aa2-185), less than 5.00; at G12C KRAS (aa2-184) [4], 8.12; at WT HRAS (aa2-184), 5.05.

As to `Oc1cc(-c2ncc3c(N4C[C@H]5CC[C@@H](C4)O5)nc(OC[C@@]45CCCN4C[C@H](F)C5)nc3c2F)c2c(F)c(F)ccc2c1` [Example 16, 5,6-difluoro-4-(8-fluoro-2-{[(2R,7aS)-2-fluorotetrahydro-1H-pyrrolizin-7a(5H)-yl]methoxy}-4-[(1R,5S)-8-oxa-3-azabicyclo[3.2.1]octan-3-yl]pyrido[4,3-d]pyrimidin-7-yl)naphthalen-2-ol, acetic acid salt], the pKd on G12V KRAS (aa2-184) [1] was 8.24; in [2], 8.24; on G12D KRAS (aa1-185) [3], 7.62; on WT NRAS (aa2-185), less than 5.00; on G12C KRAS (aa2-184) [4], 8.07; at WT HRAS (aa2-184) it was less than 5.00.

As to `C#Cc1cccc2cc(O)cc(-c3ncc4c(N5CC[C@H](CC#N)C5)nc(OC[C@@]56CCCN5C[C@H](F)C6)nc4c3F)c12` [Example 3, {(3R)-1-[7-(8-ethynyl-3-hydroxynaphthalen-1-yl)-8-fluoro-2-{[(2R,7aS)-2-fluorotetrahydro-1H-pyrrolizin-7a(5H)-yl]methoxy}pyrido[4,3-d]pyrimidin-4-yl]pyrrolidin-3-yl}acetonitrile], the pKd on G12V KRAS (aa2-184) [1] was 7.97; in data set [2] it was 8.32; at G12D KRAS (aa1-185) [3], 7.91; at WT NRAS (aa2-185), less than 5.00; at G12C KRAS (aa2-184) [4] it was 7.96; at WT HRAS (aa2-184), less than 5.00.

For the compound `C#Cc1c(F)ccc2cc(OCOP(=O)(O)O)cc(-c3nc4c5c(nc(OC[C@@]67CCCN6C[C@H](F)C7)nc5c3F)N3CCCOC[C@H]3CO4)c12` [Example 34, ({5-ethynyl-6-fluoro-4-[(8aS)-4-fluoro-2-{[(2R,7aS)-2-fluorotetrahydro-1H-pyrrolizin-7a(5H)-yl]methoxy}-8a,9,12,13-tetrahydro-8H,11H-7,10-dioxa-1,3,6,13a-tetraazanaphtho[1,8-ab]heptalen-5-yl]naphthalen-2-yl}oxy)methyl dihydrogen phosphate], in data set [5] (setting [9]), the “Cav Fold Increase” value came out at 10.4. Further, the “Cav, ss, u” value in data set [5] (setting [10]) is recorded as 3.84 nM.

As to `Oc1cc(-c2ncc3c(N4C[C@@H]5C[C@H](C4)[C@H](O)C5)nc(OC[C@@]45CCCN4C[C@H](F)C5)nc3c2F)c2c(Cl)cccc2c1` [Example 20, (1R,5R,6R)-3-[7-(8-chloro-3-hydroxynaphthalen-1-yl)-8-fluoro-2-{[(2R,7aS)-2-fluorotetrahydro-1H-pyrrolizin-7a(5H)-yl]methoxy}pyrido[4,3-d]pyrimidin-4-yl]-3-azabicyclo[3.2.1]octan-6-ol], the pKd was 10.01 at G12V KRAS (aa2-184) [1]; 10.12 in data set [2]; 9.86 at G12D KRAS (aa1-185) [3]; 6.00 at WT NRAS (aa2-185); 9.20 at G12C KRAS (aa2-184) [4]; 6.14 at WT HRAS (aa2-184).

`Oc1cc(-c2ncc3c(N4C[C@@H]5C[C@H](C4)[C@H](O)C5)nc(OC[C@@]45CCCN4C[C@H](F)C5)nc3c2F)c2c(F)c(F)ccc2c1` [Example 14, (1R,5R,6R)-3-[7-(7,8-difluoro-3-hydroxynaphthalen-1-yl)-8-fluoro-2-{[(2R,7aS)-2-fluorotetrahydro-1H-pyrrolizin-7a(5H)-yl]methoxy}pyrido[4,3-d]pyrimidin-4-yl]-3-azabicyclo[3.2.1]octan-6-ol]: the negative-log Kd (pKd) is 9.34 at G12V KRAS (aa2-184) [1]; 11.22 in [2]; 10.04 on G12D KRAS (aa1-185) [3]; 6.18 at WT NRAS (aa2-185); 9.58 on G12C KRAS (aa2-184) [4]; 6.70 on WT HRAS (aa2-184).

On WT HRAS (aa2-184), `C#Cc1c(F)ccc2cc(O)cc(-c3nc4c5c(nc(OC[C@@]67CCCN6C[C@H](F)C7)nc5c3F)N3CCCC[C@H]3CO4)c12` [Example 23, 5-ethynyl-6-fluoro-4-[(8aS)-4-fluoro-2-{[(2R,7aS)-2-fluorotetrahydro-1H-pyrrolizin-7a(5H)-yl]methoxy}-8,8a,9,10,11,12-hexahydro-7-oxa-1,3,6,12a-tetraazabenzo[4,5]cyclohepta[1,2,3-de]naphthalen-5-yl]naphthalen-2-ol] gave a negative-log Kd (pKd) of 6.33.

For `C#Cc1c(F)c(F)cc2cc(O)cc(-c3nc4c5c(nc(OC[C@@]67CCCN6C[C@H](F)C7)nc5c3F)N3CCCC[C@H]3CO4)c12` [Example 33, 5-ethynyl-6,7-difluoro-4-[(8aS)-4-fluoro-2-{[(2R,7aS)-2-fluorotetrahydro-1H-pyrrolizin-7a(5H)-yl]methoxy}-8,8a,9,10,11,12-hexahydro-7-oxa-1,3,6,12a-tetraazabenzo[4,5]cyclohepta[1,2,3-de]naphthalen-5-yl]naphthalen-2-ol], the pKd is 10.02 on G12V KRAS (aa2-184) [6], 10.72 on G12D KRAS (aa1-185) [7], 10.64 in data set [2] and 10.72 at G12C KRAS (aa2-184) [8]. The “Cav Fold Increase” value in [5] (setting [9]) was 1. Also, in data set [5] (setting [9]), the “Cmax Fold increase” value worked out at 1. The entries for the “Cav, ss, u” value in [5] (solution (2.5% Pluronic F-68)) and in data set [5] (setting [10]) were 0.30 nM and 0.37 nM, respectively. Besides, the “Cmax, u” value in data set [5] (solution (2.5% Pluronic F-68)) was 0.60 nM; in data set [5] (setting [10]), 0.48 nM.

Take `C#Cc1c(F)ccc2cc(O)cc(-c3ncc4c(N5C[C@@H]6C[C@H](C5)[C@H](O)C6)nc(OC[C@@]56CCCN5C[C@H](F)C6)nc4c3F)c12` [Example 10, (1R,5R,6R)-3-[7-(8-ethynyl-7-fluoro-3-hydroxynaphthalen-1-yl)-8-fluoro-2-{[(2R,7aS)-2-fluorotetrahydro-1H-pyrrolizin-7a(5H)-yl]methoxy}pyrido[4,3-d]pyrimidin-4-yl]-3-azabicyclo[3.2.1]octan-6-ol]: the pKd on G12V KRAS (aa2-184) [1] was 8.31; in [2], 10.52; on G12D KRAS (aa1-185) [3] it was 9.53; at WT NRAS (aa2-185), 6.46; on G12C KRAS (aa2-184) [4], 9.17; at WT HRAS (aa2-184), 7.15.

Source of the values: patent US20260327244A1, “PYRIDO[4,3-D]PYRIMIDINE COMPOUNDS” (Pfizer Inc., priority 2022, published 2026).
